Assay results as given in patent publication US6417231B1, “Method and composition for delivering therapeutically effective amounts of pyruvate to a mammal” (priority 1996, dated 2002).
“And” between values parts separate entries of the source, which are not always exact repeats. Equal entries are not always repeated.

Tests used:
[1] = Time course of blood pyruvate concentration after oral gavage (bioavailability of pyruvate); format: in vivo, male Sprague-Dawley rats; conditions: rat; for Blood pyruvate concentration: single animals
Source text: The basic measurement is the time course of serum pyruvate concentration following oral administration of tripyruvin, compared with that following oral administration of sodium pyruvate or a placebo.
Six male Sprague-Dawley rats, weighing 380±28 grams (mean±standard deviation), were used in the initial animal experiments. The rats were divided into three groups of two rats each, one group of two for the experimental treatment, one group for the conventional sodium pyruvate treatment, and one group for placebo. The rats were housed in hanging wire cages (two per cage) in a room maintained at 22° C., and were kept on a twelve-hour light/dark cycle with lights on at 7 AM. All animals had free access to water and to standard laboratory rodent chow; except that on nights before an experiment food was removed at 6 PM.
An initial time-course experiment was performed with the crude reaction mixture, in which tripyruvin and free pyruvate were both present (i.e., with the product of “Step 4” n the synthesis described above, without the further purification of “Step 5.”) 1.14 g of this mixture (76% sodium pyruvate, 24% tripyruvin=0.79 total pyruvate) in 2 mL sterile water was fed by gavage in a single dose. For comparison, rats were fed an equivalent amount of pyruvate as sodium pyruvate in water; or were fed a placebo comprising water only. Blood samples (250 μL) taken from a snipped tail vein were collected before feeding, and at 60, 90, 120, and 150 minutes after gavage feeding.
The assay for serum pyruvate concentration was a modification of the Sigma NADH-NAD assay. Collected blood samples were diluted 1:3 in cold 8% perchloric acid (aqueous), and the precipitates were vortexed and centrifuged. Supernatant (100 μL) was pipetted into a microtiter plate. Trizma base (25 μL) was pipetted into the plate, followed by 25 μL of aqueous NADH solution (1 g/2.2 mL). The absorbance of the solution at 340 nm was then measured as a baseline. […] dehydrogenase (50 μL, 10 U/mL) was then pipetted into the plate, and the plate was incubated at 37° C. for 3-5 minutes. Absorbance at 340 nm was again measured (to assay the extent of the reaction NADH→NAD+H^+). Standards and two levels of quality control samples were run with each plate. Results are shown in Table 1 for each of the six rats.

Solubility in water = format: physicochemical
Source text: After purification, the identity of the tripyruvin was confirmed by laser-desorption mass spectrometry, elemental analysis, and ^1H nuclear magnetic resonance.

[2] = oral gavage, compared with sodium pyruvate

Blood pyruvate concentration ([1]; 60 min after single oral gavage dose in 2 mL water)	Blood pyruvate concentration ([1]; 90 min after single oral gavage dose in 2 mL water)	Blood pyruvate concentration ([1]; 120 min after single oral gavage dose in 2 mL water)	Blood pyruvate concentration ([1]; 150 min after single oral gavage dose in 2 mL water)	Blood pyruvate concentration ([1]; time 0 min (before gavage feeding))	Solubility in water (Solubility in water)	Bioavailability of pyruvate [1, 2]	Rise in blood pyruvate levels [1, 2]	Compound
0.07 mM and 0.10 mM	0.07 mM and 0.09 mM	0.12 mM	0.12 mM and 0.16 mM	0.07 mM and 0.06 mM	–	–	–	CC(=O)C(=O)[O-].[Na+] [sodium pyruvate]
–	–	–	–	–	freely soluble	higher	more rapid rise	CC(=O)C(=O)OCC(COC(=O)C(C)=O)OC(=O)C(C)=O [tripyruvin, tripyruvyl glycerol]
